Here are results for one compound from US11083770B2, “Medical preparation and method for enhancing tissue oxygenation in case of diabetic foot” (priority 2017, dated 2021).

Molecules are shown by their SMILES. Peptide text beside a SMILES is read from it.

Data set [1] has as its system white mongrel rats. The note with it: rat, in vivo.
The test system of data set [2] is white mongrel male mice. In words: Acute toxicity, Kerber's method, single intramuscular dose.

For the compound `N[C@@H](CCC(=O)O)C(=O)N[C@@H](Cc1c[nH]c2ccccc12)C(=O)O` [L-Glu-L-Trp, L-glutamic-L-tryptophan acid] (H-Glu-Trp-OH; N-terminus and C-terminus assumed), the “Side effects from long-term administration” value in data set [1] was “absence of side effects”. Further, the Acute toxic reactions entry in data set [2] (doses exceeding the therapeutic dose by several thousand times) is on record as “does not cause acute toxic reactions”. Besides, the Death of animals entry in data set [2] (mice, single i.m. 1, 2, 3, 4, 5 mg/kg, within 72 hours and further 14 days) was “Death of animals did not take place in any of the groups”.
